Results reported in paper PMC12125541, “Timed chromatin invasion during mitosis governs prototype foamy virus integration site selection and infectivity” (Nucleic Acids Research, 2025).
* marks the point of attachment. Biotin = O=C1N[C@H]2[C@H](CS[C@H]2CCCCC(=O)*)N1

How the values were obtained:
recombinant NCPs [1] = assay: Streptavidin pull-down of recombinant nucleosomes with biotinylated Gag CBS peptides; format: binding, human; settings: 2 h at 4°C; for pull-down of nucleosomes: 75–150 mM NaCl, 1.5 μg biotinylated peptide, 3 μg NCP, Coomassie gel
Excerpt: Recombinant nucleosome core particles (NCPs) (mono-nucleosomes) were assembled as previously described. Briefly, individual human histones H2A, H2B, H3, and H4 were purchased (The Histone Source; Colorado State University) and octamers were assembled by dialysis. The Widom-601 DNA [25] was generated by restriction enzyme digestion of a concatenated construct and purified by anion exchange chromatography onto a POROS-HQ column. NCPs were assembled with a ratio 1.1:1 (1.1 octamer:1 DNA) by successive steps of salt dialysis against TEN buffer (0–2 M NaCl, 10 mM Tris, pH 7.5, 1 mM ethylenediaminetetraacetic acid, 1 mM Dithiothreitol (DTT)). NCPs were kept at −80°C in 0 mM NaCl TEN buffer.
Twenty microliters of streptavidin beads (Dynabeads™ MyOne™ Streptavidin T1; Invitrogen; Thermo Fisher Scientific) were used per condition. StreptaBeads were washed twice with pull-down buffer (20 mM Tris–HCl, pH 7.5, 0.1% NP-40, 10% glycerol, 75–150 mM NaCl, 0.5 mM DTT, and 1 mM Phenylmethylsulfonyl fluoride (PMSF)) containing 75 mM of NaCl and 100 μg of bovine serum albumin (BSA), followed by one wash in the same conditions, without BSA. 1.5 μg of Gag CBS (chromatin binding site) biotinylated peptide and 3 μg of recombinant NCPs were added per condition, in a final volume of 800 μl of pull-down buffer with corresponding NaCl concentrations. The reaction mix was incubated for 2 h on a rotation wheel, at 4°C. Beads were washed three times with the corresponding NaCl concentration buffer, and bound proteins were eluted by the addition of 10 μl of SDS Sample Buffer 2.5×. Samples were separated by sodium dodecyl sulfate–polyacrylamide gel electrophoresis, and analyzed after colloidal Coomassie blue staining.

[2] = test system: NCP saturated with H4 tails (H2A–H2B acidic patch); assay: BLI competition: immobilized Gag CBS peptides versus NCP saturated with H4 tails; format: binding, human; settings: mean of two experiments; for binding to NCP saturated with WT H4 tail: 100 nM NCP pre-incubated with 100 μM H4 WT peptide at least 30 min at room temperature
Experimental: Quantitative interaction experiments were performed by biolayer interferometry (BLI), using a BLItz instrument (Octet® N1; Sartorius). Two different runs were performed: the first one, into water, to coat biosensors with biotinylated peptides (Table 1) and the second, into Blitz buffer [1× phosphate buffer saline, pH 7.4, 0.02% (v/v) Tween 20, 0.1% (w/v) BSA], to fix NCPs on immobilized peptides. All steps were performed under 2200 rpm shaking speed. Streptavidin biosensors (Octet®SA Biosensors; Reference 18-0009; Sartorius) were first pre-wet for at least 10 min with water. The baseline, with only water, was measured for 60 s. Ten micromolar Gag CBS biotinylated peptides (or H4 biotinylated peptides), diluted in water, were loaded onto the biosensors, for 180 s, to reach a binding of ∼1.5 nm, followed by a dissociation step of 180 s. Following the first run, coated biosensors were equilibrated for at least 10 min in Blitz buffer. The second run started with 60 s of baseline, followed by the association step, where biosensors were dipped into serial dilutions of NCPs (10, 25, 50, or 100 nM), for 300 s. Finally, the dissociation step was performed in Blitz buffer, for 300 s. For competition experiments, the second run started with 60 s of baseline in Blitz buffer, followed by 300 s of association step. During this step, solutions of 100 nM of NCPs were pre-incubated with or without 100 μM of H4 peptide [wild type (WT) or mutant, non-biotinylated], in Blitz buffer, for at least 30 min at room temperature. Finally, the dissociation step was performed in Blitz buffer, for 180 s. Nonspecific binding controls were performed, such as binding of 100 nM of NCPs on biosensors without biotinylated peptides loaded, as well as binding of Blitz buffer on loaded biosensors. For each time point measured, data of this second control (binding of Blitz buffer on biosensors loaded with biotinylated Gag WT peptide) were subtracted to every condition and were plotted on curves, using Prism 9 software.

recombinant NCPs [3] = assay: BLI of immobilized biotinylated peptides with recombinant NCP; format: binding, human; settings: for BLI interaction with nucleosomes: peptide on streptavidin biosensor, NCP 10, 25, 50 or 100 nM, 1× PBS pH 7.4, 0.02% Tween 20, 0.1% BSA, representative of three experiments
Excerpt: Recombinant nucleosome core particles (NCPs) (mono-nucleosomes) were assembled as previously described [13]. Briefly, individual human histones H2A, H2B, H3, and H4 were purchased (The Histone Source; Colorado State University) and octamers were assembled by dialysis. The Widom-601 DNA [25] was generated by restriction enzyme digestion of a concatenated construct and purified by anion exchange chromatography onto a POROS-HQ column. NCPs were assembled with a ratio 1.1:1 (1.1 octamer:1 DNA) by successive steps of salt dialysis against TEN buffer (0–2 M NaCl, 10 mM Tris, pH 7.5, 1 mM ethylenediaminetetraacetic acid, 1 mM Dithiothreitol (DTT)). NCPs were kept at −80°C in 0 mM NaCl TEN buffer.
Quantitative interaction experiments were performed by biolayer interferometry (BLI), using a BLItz instrument (Octet® N1; Sartorius). Two different runs were performed: the first one, into water, to coat biosensors with biotinylated peptides (Table 1) and the second, into Blitz buffer [1× phosphate buffer saline, pH 7.4, 0.02% (v/v) Tween 20, 0.1% (w/v) BSA], to fix NCPs on immobilized peptides. All steps were performed under 2200 rpm shaking speed. Streptavidin biosensors (Octet®SA Biosensors; Reference 18-0009; Sartorius) were first pre-wet for at least 10 min with water. The baseline, with only water, was measured for 60 s. Ten micromolar Gag CBS biotinylated peptides (or H4 biotinylated peptides), diluted in water, were loaded onto the biosensors, for 180 s, to reach a binding of ∼1.5 nm, followed by a dissociation step of 180 s. Following the first run, coated biosensors were equilibrated for at least 10 min in Blitz buffer. The second run started with 60 s of baseline, followed by the association step, where biosensors were dipped into serial dilutions of NCPs (10, 25, 50, or 100 nM), for 300 s. […] For each time point measured, data of this second control (binding of Blitz buffer on biosensors loaded with biotinylated Gag WT peptide) were subtracted to every condition and were plotted on curves, using Prism 9 software.

[4] = target: Gag Y537Q biotinylated peptide (PFV Gag CBS Y537Q) (prototype foamy virus (PFV)); assay: BLI; biotinylated Gag CBS peptides on streptavidin biosensors; NCP 10, 25, 50 or 100 nM in solution; 1× PBS pH 7.4, 0.02% Tween 20, 0.1% BSA; BLItz instrument

Substance | pull-down of nucleosomes (recombinant NCPs [1]) | binding to NCP saturated with WT H4 tail [2] | BLI interaction with nucleosomes (recombinant NCPs [3]) | other results
Biotin-GGQNLRPRTYQPQRYG-OH [Y537Q CBS peptide, Biotinylated PFV Gag CBS peptide with Tyr537Gln substitution] | affected nucleosome interaction, though largely in a salt-independent manner | unable to effectively compete |  | binding to NCP saturated with H4 mut tail ([2]; 100 nM NCP pre-incubated with 100 μM H4 mut peptide at least 30 min at room temperature): unable to effectively compete
Biotin-GGYNLQPRTYQPQRYG-OH [R540Q CBS peptide, Biotinylated PFV Gag CBS peptide with Arg540Gln substitution] |  | no interaction with the NCP | almost complete reduction | pull-down of nucleosomes, physiological salt (recombinant NCPs [1]; 125–150 mM NaCl): virtually eliminated binding; pull-down of nucleosomes, hypotonic conditions (recombinant NCPs [1]; low salt (below 125 mM NaCl)): reduced binding
Biotin-GGYNLRPRTYQPQRYG-OH [WT CBS peptide] | efficiently pulled down nucleosomes across tested salt concentrations | reached the same level as without H4 tails | strongest BLI interaction | 
Biotin-SGRGKGGKGLGKGGAKRHAAVLA-OH [H4 mut, reference compound] |  |  |  | binding of H4 tail peptide to purified NCPs (recombinant NCPs [3]; BLI, immobilized H4 peptide, Supplementary Fig. S7): retains some residual binding
Recombinant nucleosome core particle (human histone octamer on Widom-601 DNA) (from UniProt P04908 1-130; P06899 1-126; P68431 1-136; P62805 1-103) (complex) |  |  |  | fold reduction of the BLI interaction against the WT CBS peptide [4]: 5 fold
